For one test, the system named is Kuramochi cells. In words: IncuCyte Kuramochi Assay (cell proliferation). In kind it is cell-based. The note with it: 72 h, Kuramochi cells labeled with mApple-H2B, cell count, read-out: IncuCyte - Kuramochi RB-WT: IC50. In short, it runs like this:
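GI50 came from dose-response fits of cell-count fold change between 0 and 72 h, normalized to DMSO controls. Counts were fluorescent nuclei from live-cell images over a 10-point, ½ log series starting at 20 μM.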

For a further test, the target named is T1, CDK2/Cyclin E1 (Homo sapiens, UniProt P24941).
T1 construct: purchased 14-475
In words: Caliper Assay (LabChip EZ Reader mobility shift assay), inhibition of CDK2/Cyclin E1 activity. In kind it is biochemical. The note with it: 2.5 nM CDK2/Cyclin E1(14-475), 100 μM ATP, 30 min preincubation; read-out: Caliper Assay (CDK2/CCNE1): IC50. The method in brief:
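Compounds were preincubated 30 min with CDK2/Cyclin E1(14-475), then run for 100 min with 2.5 nM enzyme, 100 μM ATP and 1.5 μM 5-FAM-QSPKKG peptide in HEPES pH 7.5 (final). Reactions were EDTA-stopped and substrate-to-product conversion read by mobility shift. IC50 came from a four-parameter fit.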

SMILES strings stand for the structures.

On to `CC(C)(C(=O)N1CC2(C1)CN(c1ncnc3ncsc13)CC2c1nnc(C(F)(F)c2ccc(Cl)c(Cl)c2)o1)C(F)F` (stereo not drawn) [I-170, 1-(8-(5-((3,4-dichlorophenyl)difluoromethyl)-1,3,4-oxadiazol-2-yl)-6-(thiazolo[4,5-d]pyrimidin-7-yl)-2,6-diazaspiro[3.4]octan-2-yl)-3,3-difluoro-2,2-dimethylpropan-1-one], for which the IC50 in the test on Kuramochi cells and at CDK2/Cyclin E1 was over 10 µM each time.
Consider `O=C([C@H]1CC1(F)F)N1CC(c2nnc(C(F)(F)c3ccc(Cl)c(Cl)c3)o2)C2(C1)CN(C(=O)[C@H]1CC1(F)F)C2` (stereo partly drawn) [I-171], for which the IC50 in the test with Kuramochi cells and at CDK2/Cyclin E1 was over 10 µM each time.
As to `O=C(c1cncs1)N1CC(c2nnc(C(F)(F)c3ccc(Cl)c(Cl)c3)o2)C2(C1)CN(C(=O)C1CNC1)C2` (stereo not drawn) [I-173], the IC50 with Kuramochi cells and on CDK2/Cyclin E1 was over 10 µM each time.
Take `CC1(C(=O)N2CC3(C2)CN(c2ncnc4ncsc24)CC3c2nnc(C(F)(F)c3ccc(Cl)c(Cl)c3)o2)CC1(F)F` (stereo not drawn) [I-174, (8-(5-((3,4-dichlorophenyl)difluoromethyl)-1,3,4-oxadiazol-2-yl)-6-(thiazolo[4,5-d]pyrimidin-7-yl)-2,6-diazaspiro[3.4]octan-2-yl)(2,2-difluoro-1-methylcyclopropyl)methanone]: the IC50 with Kuramochi cells is over 10 µM; at CDK2/Cyclin E1 it was 1 to 10 µM.
On to `CC(C)(C#N)C(=O)N1CC2(CN(C(=O)c3cnccn3)CC2c2nnc(C(F)(F)c3ccc(Cl)c(Cl)c3)o2)C1` (stereo not drawn) [I-175], for which the IC50 in the test with Kuramochi cells and on CDK2/Cyclin E1 was over 10 µM each time.
On to `O=C(c1cnccn1)N1CC(c2nnc(C(F)(F)c3ccc(Cl)c(Cl)c3)o2)C2(C1)CN(C(=O)[C@H]1CC1(F)F)C2` (stereo partly drawn) [I-176, (8-(5-((3,4-dichlorophenyl)difluoromethyl)-1,3,4-oxadiazol-2-yl)-2-((R)-2,2-difluorocyclopropane-1-carbonyl)-2,6-diazaspiro[3.4]octan-6-yl)(pyrazin-2-yl)methanone], for which the values for the IC50 with Kuramochi cells and on CDK2/Cyclin E1 were over 10 µM and 1 to 10 µM, respectively.
Take `CC(C)(C#N)C(=O)N1CC2(CN(C(=O)c3cn[nH]c3)CC2c2nnc(C(F)(F)c3ccc(Cl)c(Cl)c3)o2)C1` (stereo not drawn) [I-177]: the IC50 in the test with Kuramochi cells and on CDK2/Cyclin E1 was over 10 µM each time.
As to `CC(C)(O)C(=O)N1CC2(CN(C(=O)c3cncs3)CC2c2nnc(C(F)(F)c3ccc(Cl)c(Cl)c3)o2)C1` (stereo not drawn) [I-178], the IC50 with Kuramochi cells and on CDK2/Cyclin E1 was over 10 µM throughout.
On to `CC1(C)OC1C(=O)N1CC2(CN(C(=O)c3cncs3)CC2c2nnc(C(F)(F)c3ccc(Cl)c(Cl)c3)o2)C1` (stereo not drawn) [I-179, (8-(5-((3,4-dichlorophenyl)difluoromethyl)-1,3,4-oxadiazol-2-yl)-2-(3,3-dimethyloxirane-2-carbonyl)-2,6-diazaspiro[3.4]octan-6-yl)(thiazol-5-yl)methanone], for which the IC50 in the test with Kuramochi cells is 5 to 10 µM; on CDK2/Cyclin E1, over 10 µM.
Turning to `O=C(c1cncs1)N1CC(c2nnc(C(F)(F)c3ccc(Cl)c(Cl)c3)o2)C2(CC(C(=O)N3CCC3)C2)C1` (stereo not drawn) [I-180], the IC50 in the test with Kuramochi cells and on CDK2/Cyclin E1 was over 10 µM throughout.
`O=C(N1CC2(C1)CN(c1ncnc3ncsc13)CC2c1nnc(C(F)(F)c2ccc(Cl)c(Cl)c2)o1)C1(C(F)(F)F)CC1` (stereo not drawn) [I-181, (8-(5-((3,4-dichlorophenyl)difluoromethyl)-1,3,4-oxadiazol-2-yl)-6-(thiazolo[4,5-d]pyrimidin-7-yl)-2,6-diazaspiro[3.4]octan-2-yl)(1-(trifluoromethyl)cyclopropyl)methanone]: the IC50 in the test with Kuramochi cells and on CDK2/Cyclin E1 was over 10 µM in each case.
`O=C(c1cncs1)N1CC(c2nnc(C(F)(F)c3ccc(Cl)c(Cl)c3)o2)C2(CN(CC3CCCO3)C2)C1` (stereo not drawn) [I-182, (8-(5-((3,4-dichlorophenyl)difluoromethyl)-1,3,4-oxadiazol-2-yl)-2-((tetrahydrofuran-2-yl)methyl)-2,6-diazaspiro[3.4]octan-6-yl)(thiazol-5-yl)methanone]: the IC50 in the test with Kuramochi cells and on CDK2/Cyclin E1 was over 10 µM throughout.

The values above are taken from patent US20260151375A1, “CDK2 INHIBITORS AND METHODS OF USING THE SAME” (Cedilla Therapeutics, Inc., priority 2022, published 2026).
